The record followed here is patent US20090179638A1, “ASSAY FOR IDENTIFYING INHIBITORS OF NEURONAL APOPTOTIC PATHWAYS” (AEGERA THERAPEUTICS INC., priority 2006, published 2009).

“Also recorded” adds a separate entry of the source.

In data set [1] the test system is HSP90. As to the kind of experiment: ATP-Sepharose interaction assay. The class given is binding. Particulars: purified HSP90 pre-incubated with substance. As to the method: Bound HSP90 was eluted HSP90 content was determined by immunoblotting.
ATP-Sepharose Interaction Assays. These were performed essentially as described in (Grenert et al., 1997). […] 25 ul of ATP-sepharose beads were added and the reactions were incubated for 30 min at 30° C. After thorough washing with ice-cold incubation buffer, bound proteins were eluted in sample buffer and HSP90 content was determined by immunoblotting.

For the next data set, the system named is SCG neurons. The data set is described as follows: NGF-withdrawal induced cell death of SCG neurons (MTS assay). The class given is cell-based, rat. As to conditions: SCG neurons withdrawn from NGF, 48 hours. On the procedure:
FIG. 1 is a graph showing that compound 1 inhibits NGF-withdrawal induced cell death. Cultures of rat SCG neurons (see Materials and Methods) initially maintained in 10 ng/ml of NGF were withdrawn from NGF and maintained in media containing compound 1 at the concentrations indicated for 48 hours. Cellular viability was assayed using an MTS assay. (*=P<0.01 relative to no compound 1). Experiments were performed three times with identical results.
Survival of neonatal primary sympathetic neurons is dependent on trophic support provided by Neuronal Growth Factor (NGF) (reviewed in (Young et al., 2004)).
(§1) Cell culture, infection, transfection and immunoblotting. Sympathetic neurons were maintained and deprived of NGF as previously described (Bamji et al., 1998; Ma et al., 1992). PC12^rtTA cells were maintained and infected as previously described (Majdan et al., 1997; Salehi et al., 2002); for NRAGE, […] doxycycline was added to all plates at time of infection. Wildtype and HSF1 nullizygous immortalized mouse embryonic fibroblasts (MEFs) were maintained in DMEM containing 10% fetal calf serum, 1 μM β-mercaptoethanol, 1% non-essential amino acids, 1% L-glutamine, 1% antimycotic solution and 1% sodium pyruvate (all from GibcoBRL). Sympathetic neuron survival was assessed using the MTS assay according to the manufacturer's instructions (Promega). Analysis of PC12 cell death was determined using a lactate dehydrogenase (LDH) assay (Roche) as per the manufacturer's instructions. Transfections using plasmids or RNAi were performed using Lipofectamine 2000. Immunoblotting was performed as previously described (Majdan et al., 1997; Salehi et al., 2002).
On the technique in general: Tetrazolium assays rely on reduction of a dye to a coloured formazan, in cell work by metabolically active cells.

For another data set, the system named is PC12^rtTA cells. As to the kind of experiment: p75NTR- or NRAGE-induced cell death of PC12rtTA cells (LDH release assay). The class given is cell-based. Particulars: increasing concentrations, 40 hours, LDH. As to the method: FIGS. 2A and 2B are graphs showing that compound 1 inhibits p75NTR or NRAGE induced JNK activation and cell death. Compound 1 inhibits NRAGE (A) or p75NTR (B) mediated cell death. PC12^rtTA cells were infected with recombinant adenoviruses expressing full-length NRAGE (AdNRG) at 5 MOI, full length p75NTR (Adp75) at 50 or 100 MOI, or the control protein β-galactosidase (AdLacZ) (at 5 MOI in (A) and 50 MOI in (B)). At time of infection, the cells were treated with an increasing concentration of compound 1, or with vehicle alone, as indicated. After 40 hours, cells were assayed for death using the lactate dehydrogenase (LDH) assay; untreated cells (Un) and cells treated with 1% Triton X-100 (Tx) were used to delineate the output range of the assay. Results are normalized relative to those obtained with 1% Triton (Tx), and represent the mean±standard deviation of a representative experiment performed in triplicate (*=P<0.005 relative to no compound 1).
PC12^rtTA were infected with adenoviruses encoding p75NTR (Adp75), NRAGE (AdNRG), or as a control, LacZ (AdLacZ), and were concurrently exposed to increasing concentrations of compound 1 for a period of 40 hours. Cell death was assessed using an LDH release assay. […] Treatment with 40 μM compound 1 reduced p75NTR- or NRAGE-induced cell death by greater than 90%.
as §1
In general terms: Release of lactate dehydrogenase indicates damage to the cell membrane.

The subject of the next data set is HSP70. As to the kind of experiment: HSP protein expression in PC12 / PC12rtTA cells (immunoblot). The class given is cell-based. As to conditions: PC12rtTA cells infected with AdNRG, Adp75 or AdLacZ, 30 hours (FIG. 6A). On the procedure: FIGS. 4A-4C are photographs of Western blots which illustrate that compound 1 treatment of PC12 cells induces expression of HSP70. A: PC12 cells were infected with 5 MOI of AdNRG (NRG) or AdLacZ (LacZ) as indicated. Cells were left untreated (0) or treated with 40 μM compound 1 at time of infection (30), one hour before lysis (1), or at both times (30+1). Cells were lysed thirty hours after infection, normalized for protein content, and analyzed for levels of phospho-Ser^63 c-Jun and total c-Jun, total JNK, IkBα, and NRAGE by immunoblotting. Lysates from untreated cells are indicated by ‘−’. B: PC12 cells were treated with the indicated concentrations of compound 1 for 18 hours and then lysed, normalized for protein content, and analyzed for levels of HSP70 by immunoblotting. Lysates from untreated cells are indicated by ‘−’. C: RNA isolated from PC12^rtTA cells treated with increasing concentrations of compound 1 for 18 hours was analyzed by rtPCR using primers specific to HSP70, HSP25, HSP90 or actin, as indicated. Experiments in Panel A and B were performed three times and that in Panel C was performed twice, with essentially identical results. D: PC12^rtTA cells were infected with AdNRG at 5 MOI, Adp75 at 50 MOI, or the control virus AdLacZ at 50 MOI. At time of infection, the cells were treated with increasing concentrations of compound 1, or with vehicle alone, as indicated. Thirty hours after infection, cells were lysed, normalized for protein content, and analyzed for levels of c-Jun phosphorylation, HSP70, HSP25, HSP40, NRAGE, p75NTR, JNK-1 and IkBα, as indicated.
FIGS. 6A, 6B and 6C are graphs and photographs of Western blots which illustrate that compound 1 analogues inhibit JNK activation and induce expression of HSP70. A: PC12^rtTA cells were infected with 5 MOI of AdNRG, 50 MOI of Adp75 or 50 MOI of the control virus AdLacZ. At time of infection, the cells were treated with an increasing concentrations of compound 1, or its analogues, compound 2, compound 3, compound 4, or with vehicle alone, as indicated. Thirty hours after infection, cells were lysed, normalized for protein levels, and analyzed for levels of HSP70, HSP25 and JNK-1, as indicated. B: PC12^rtTA cells were treated as above and after 40 hours infection were assayed for death using the lactate dehydrogenase (LDH) assay. Results are normalized relative to those obtained with 1% Triton, and represent the mean±standard deviation of a representative experiment performed in triplicate (*=P<0.025 relative to ‘0’ for each compound concentration). C: PC12^rtTA cells were infected with 50 MOI of LacZ or 5 MOI of AdNRG50 and at the time of infection, were treated with 40 μM compound 1, or its analogues, compound 2, compound 3, compound 4, or with vehicle alone, as indicated. Thirty hours after infection, cells were lysed, normalized for protein levels, and were analyzed for phosphorylated c-Jun, total c-Jun, NRAGE and JNK-1, as indicated. Experiments in Panel A and C were performed twice and that in B were performed twice, with essentially identical results.
To address this, SCG neurons were treated with compound 1 for 18 hours then lysed and assessed for HSP70 levels by immunoblot. Uninfected PC12rtTA cells were treated in a similar manner. […] To test if the accumulation of HSP70 induced by compound 1 reflected increased steady state levels of its mRNA, RNA was isolated from PC12 cells treated with increasing concentrations of compound 1 for 18 hours and the cell lysates subjected to semi-quantitative rtPCR. […] HSP protein levels were also assessed in PC12rtTA cells infected with AdLacZ, Adp75, or AdNRG, and at the same time, exposed to compound 1.
For orientation: Immunoblotting shows a protein as a band on a membrane.

Another data set deals with HSP90 protein. As to the kind of experiment: STD 1H NMR spectroscopy binding to HSP90. As to conditions: compound to protein ratio approximately 100:1, 20 mM sodium phosphate buffer pH 6.7. On the procedure:
(§2) FIG. 9 is a STD 1H NMR Spectrum of Compound 1 and 20 with HSP90 protein. STD NMR experiments were performed at 19° C. on a Varian INNOVA 500 MHz spectrometer equipped with a triple resonance HCN cold probe. A 1D saturation transfer difference pulse sequence with internal subtraction via phase cycling was employed. Residual HDO signal was removed using a W5 WATERGATE pulse sequence, with a […] interpulse delay. On resonance irradiation of the protein was performed at −0.5 ppm, with off-resonance irradiation at 34 ppm. The irradiation power was (g/2p)B1=93 Hz applied through a train of 50 ms eburp1 pulses with a 1 ms delay between the pulses. The total presaturation time was 5.1 s. The relaxation delay was set to 0.1 s. A 30 ms spin-lock pulse with a strength of (g/2p)B1=4600 Hz was used to eliminate background protein signals. The total number of scans was between 1536, with a sweep width of 16 ppm. Spectra were multiplied by a 1 Hz exponential line-broadening function prior to Fourier transform. Compounds 1 (85 uM) and 20 (85 uM) and HSP90 protein (0.85 uM) in 20 mM sodium phosphate buffer (pH 6.7) was used. A) STD 1H NMR spectrum, B) preset reference, and C) STD reference-no saturation/difference.
as §2, with “STD” for “FIG. 9 is a STD 1H NMR Spectrum of Compound 1 and 20 with HSP90 protein. STD”, “employed (Mayer and Meyer, JACS, 2001, 123, 6108-6117).” for “employed.”, “delay (Liu et. al, J. Magn. Res., 1998, 132, 125).” for “delay.”, “1536-2048,” for “1536,”, “transform.” for “transform. Compounds 1 (85 uM) and 20 (85 uM) and HSP90 protein (0.85 uM) in 20 mM sodium phosphate buffer (pH 6.7) was used. A) STD 1H NMR spectrum, B) preset reference, and C) STD reference-no saturation/difference.”
The compound to protein ratio was fixed at approximately 100:1 in 20 mM sodium phosphate buffer (pH 6.7). Compound 20 was used as a reference compound to compare binding affinities of various compounds to HSP90 by comparing the relative intensity of NOE effects in the spectra of compounds 1 and 20 (see FIG. 9), compounds 2 and 20, compounds 5 and 20, compounds 13 and 20, and compounds 15 and 20 (near equamolar quantities of each) in the presence of HSP90 protein. Using the NOE signals for the imidazole proton, and comparing peak heights, the relative kd of the compound pairs were compared (see Meyer and Peters, T. Angew. Chem. Int. Ed. 2003, 42, 864). The kds of the compound pairs ranged from 1:1 to 8:1. These differences in binding affinities correlated to the potency of each respective compound's ability to rescue SCG neurons from NGF withdrawal as previously reported.

Data set [2] has as its system HSP90. As to the kind of experiment: Photoaffinity-biotin labelling of PC12 protein extracts. The class given is binding. Particulars: 2 uM, 3 hours, UV 30 minutes, approximately 90 kDal band. On the procedure: HSP90 was also identified using the photoaffinity-biotinylated probe, compound 7. PC12 protein extracts were separated by SDS page. SDS was removed by incubation in 20% isopropanol and proteins were renatured by incubation in DTT and guanidine HCl. The gel was then incubated for 3 hours with 2 uM compound 7 and then photoactivated for 30 minutes using a UV crosslinker. Proteins were then transferred to nitrocellulose and biotin was detected with HRP-conjugated strepavidin.

For data set [3] the following is noted: full body radiography. As to the method:
The induction of HSP70 was investigated in vivo by the treatment of rats with a single dose of Na-19 (SC, 30 mg/kg).

As for `Nc1ncnc2c1ncn2[C@@H]1O[C@H](COP(=O)(O)OP(=O)(O)OP(=O)(O)O)[C@@H](O)[C@H]1O` [ATP, reference compound], the “binding of HSP90 to gATP-Sepharose” value in the data set on HSP90 [1] is “strongly inhibited”.
Take `NS(=O)(=O)c1nn2cc(-c3ccc(OCC(=O)O)cc3)nc2s1` [Compound 3]: the “protection from NGF-withdrawal induced cell death” value in the data set with SCG neurons was “do not protect”. For the same compound, the “protection from Adp75- or AdNRG-induced cell death” value in the data set on PC12^rtTA cells is on record as “do not protect”. For the same compound, in the data set on HSP70, the HSP70 production entry is recorded as “failed to induce HSP70”.
With `NS(=O)(=O)c1nn2cc(-c3ccc(NC(=O)c4ccccc4)cc3)nc2s1` [Compound 4], in the data set on SCG neurons, the “protection from NGF-withdrawal induced cell death” value was “do not protect”. In the data set with PC12^rtTA cells, the “protection from Adp75- or AdNRG-induced cell death” value was “do not protect”. In addition, the HSP70 production result with HSP70 is “failed to induce HSP70”.
Consider `NS(=O)(=O)c1nn2cc(-c3ccc(O)cc3)nc2s1` [Compound 5], for which the “binding to HSP90 protein by STD 1H NMR” value in the data set with HSP90 protein is “directly bind”.
With `[N-]=[N+]=Nc1c(F)c(F)c(-c2cn3nc(S(=O)(=O)CCNC(=O)CCCCC4SC[C@H]5NC(=O)N[C@@H]45)sc3n2)c(F)c1F` (some centres unmarked) [Compound 7], the photoaffinity labelled band entry in the data set on HSP90 [2] was “consistent with binding to HSP90”.
With `NS(=O)(=O)c1nn2cc(-c3ccc4c(c3)OCCCO4)nc2s1` [Compound 12], the “binding to HSP90 protein by STD 1H NMR” value with HSP90 protein is on record as “directly bind”.
For `COCCOCCOc1ccc(-c2cn3nc(S(N)(=O)=O)sc3n2)cc1` [Compound 13], in the data set on HSP90 protein, the “binding to HSP90 protein by STD 1H NMR” value was “directly bind”.
Still for that read-out and setting: with `CC(C)(C)c1ccc(-c2cn3nc(S(N)(=O)=O)sc3n2)cc1` [Compound 15] the entry was “directly bind”.
On to `CC(=O)N1CCN(CC[S+]([O-])c2nn3cc(-c4ccccc4)nc3s2)CC1` (centres unmarked) [Compound 20], for which, in the data set on HSP90 protein, the “binding to HSP90 protein by STD 1H NMR” value is “Positive; also recorded: directly bind”.
Take `[NH-]S(=O)(=O)c1nn2[14cH]c(-c3ccc(-c4cccc(C(F)(F)F)c4)cc3)nc2s1.[Na+]` [[^14C]—Na-19, [5-^14C]-6-(3′-(trifluoromethyl)biphenyl-4-yl)imidazo[2,1-b]-1,3,4-thiadiazole-2-sulfonamide Mono Sodium Salt]: the “radioactivity in sciatic nerve” value in data set [3] is on record as “significant, time dependent, radioactivity in sciatic nerve”.
